Data reported in patent US20150141448A1, “Topical Ophthalmological Pharmaceutical Composition containing Pazopanib” (BAYER HEALTHCARE LLC, priority 2012, published 2015).
Counter-ions that a name gives are not always drawn.

Assay: Solubility in lipophilic vehicles
Assay type: physicochemical
Conditions: lipophilic vehicles like liquid or light liquid paraffin

solubility in lipophilic vehicles: very low
SMILES: Cc1ccc(Nc2nccc(N(C)c3ccc4c(C)n(C)nc4c3)n2)cc1S(N)(=O)=O [pazopanib hydrochloride, 5-[[4-[(2,3-Dimethyl-2H-indazol-6-yl)methylamino]-2-pyrimidinyl]amino]-2-methylbenzolsulfonamide]
